The results in this text go back to paper PMC3361238, “The Effects of Addition of Mononucleotides on Sma nuc Endonuclease Activity” (The Scientific World Journal, 2012).

Assay [1] addresses T1, Sma nuc endonuclease (isoform Sm2) (Serratia marcescens, UniProt P13717).
T1 construct: gene nucA; Sm2 known as the full 245-residue mature form (signal peptide removed)
T1 sequence (P13717 22-266): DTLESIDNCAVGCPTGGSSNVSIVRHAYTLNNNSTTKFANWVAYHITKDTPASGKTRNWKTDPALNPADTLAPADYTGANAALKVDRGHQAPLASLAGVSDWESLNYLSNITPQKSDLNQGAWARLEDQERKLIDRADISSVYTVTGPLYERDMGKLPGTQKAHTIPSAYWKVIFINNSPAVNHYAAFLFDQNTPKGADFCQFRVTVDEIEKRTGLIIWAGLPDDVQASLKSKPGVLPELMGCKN
Nature of the assay: hyperchromic RNA hydrolysis assay at […] nm; secondary double reciprocal plot of Lineweaver-Burk segments. It is filed as biochemical.

For assay [2], the target named is T1, Sma nuc endonuclease (isoform Sm2). Description: hyperchromic RNA hydrolysis assay at […] nm; Cornish-Bowden plot S/V against [I]. It is filed as biochemical. The conditions noted are these: RNA substrate 0.03-0.18 mM, 50 mM Tris-HCl pH 8.5, MgSO4 1.2-7.2 mM, 37 °C; uncompetitive.

The term Ki denotes the equilibrium dissociation constant of an inhibitor or competing ligand from its target. Read a low Ki as tighter binding. Turning to `Nc1ncnc2c1ncn2[C@@H]1O[C@H](COP(=O)(O)O)[C@@H](O)[C@H]1O` [AMP], the affinity in assay [1] corresponds to a Ki of 76.5 µM.
In the case of `Nc1ccn([C@@H]2O[C@H](COP(=O)(O)O)[C@@H](O)[C@H]2O)c(=O)n1` [CMP], in assay [2], the inhibition constant Ki was 86.2 µM.
Same read-out and setting: next, `Nc1nc2c(ncn2[C@@H]2O[C@H](COP(=O)(O)O)[C@@H](O)[C@H]2O)c(=O)[nH]1` [GMP]: 229 µM; `O=c1ccn([C@@H]2O[C@H](COP(=O)(O)O)[C@@H](O)[C@H]2O)c(=O)[nH]1` [UMP]: 310.7 µM.
`Nc1ncnc2c1ncn2[C@H]1C[C@H](O)[C@@H](COP(=O)(O)O)O1` [dAMP] displayed a Ki in assay [1] of 60 µM.
